# Experimental data taken from US20100130579A1, “CANCER THERAPY” (Georgetown University, priority 2006, published 2010).
# Experiments:
# Assay type in all cases: cell-based, human
# RASSF1A = assay: RT-PCR of RASSF1A expression in cancer cells
# Description: FIGS. 1A-1D. Mahanine induces RASSF1A in prostate and other cancer cells. FIG. 1A: Microarray analyses of PC3 cells treated with ([…] (+) or vehicle (−) for 2 days, RNA was extracted and microarray analysis was performed. FIG. 1B: RT-PCR data showing the expression of RASSF1A and GAPDH in untreated normal prostate epithelial cells (PrEC) and human prostate cancer cells (PC3). FIG. 1C: PC3 (left panel) and LNCaP (right panel) cells were treated with 0, 1, 2 and 3 μg/ml mahanine for 3 days. RNA was extracted, and RT-PCR assays were performed to detect RASSF1A and GAPDH expression. Representative photograph from an experiment that was repeated thrice. Quantitative estimations of relative levels of RASSF1A mRNAs (lower panels) were determined by densitometric measurements of RT-PCR gels from three independent experiments after normalization with GAPDH. […]
# Genes of interest were amplified using 500 ng of total RNA reverse-transcribed to cDNA using a Superscript II kit (Invitrogen) with random hexamers. […] After amplification, PCR products were separated on 1.5% agarose gels and visualized by ethidium bromide fluorescence using the Fuji LAS-1000 Imager. […] Band intensities were quantified by using ImageJ software (NIH, Bethesda, Md.).
# cyclin D1 = assay: Immunofluorescence staining of cyclin D1 localization; details: PC3 cells, 2 μg/ml, 2 days
# Description: (§1) FIGS. 3A-3C. Mahanine down-regulates cyclin D1 protein in prostate cancer cells. FIG. 3A and FIG. 3B: Western blots showing cyclin D1 protein levels in PC3 (A) and LNCaP (B) cells treated with 0, 1, 2 and 3 μg/ml mahanine for 3 days. Protein lysates (50 μg) from PC3 and LNCaP cells were resolved on 12% SDS-PAGE, and immunoblots were probed with antibodies to cyclin D1. All immunoblots were re-probed with β-actin antibodies to ensure equal loading. Representative photographs from an experiment that was repeated thrice. Quantitative analyses of relative levels of cyclin D1 proteins are shown on the right panels. […] FIG. 3C: PC3 cells were plated on chamber slides and treated with or without 2 μg/ml mahanine for 2 days. Cells were then fixed in methanol, incubated with cyclin D1 antibody overnight, Alexi Fluor-conjugated secondary antibodies for 1 hour and counter stained with propidium iodide (PI). Slides were then mounted and examined using a fluorescence microscope. Photographs were taken at the same magnification (×20) and then transported to Photoshop. Representative photographs from an experiment that was repeated twice.
# Immunofluorescence staining: PC3 cells were plated onto chamber slides and treated with vehicle or mahanine (2 μg/ml) for 2 days. The cells were fixed in methanol, air-dried, and re-hydrated with PBS. […]
# cyclin D1 protein = assay: Western blot of cyclin D1 protein levels; details: 3 days
# Description: as §1
# Western blots analysis: Protein lysates were prepared from PC3 and LNCaP cells that were treated with or without mahanine. […] Band intensities were quantified by utilizing ImageJ software (NIH, Bethesda, Md.).
smiles,measurement,setting,value
CC(C)=CCC[C@@]1(C)C=Cc2c(c(C)cc3c2[nH]c2cc(O)ccc23)O1 [mahanine],induction of RASSF1A expression (RT-PCR),"RASSF1A; A431, A549, ASPC-1, HT-29, MCF7 and SKOV-3 cells, 2 and 3 μg/ml, 2 days",induced RASSF1A expression
same,induction of RASSF1A gene expression (RT-PCR),"RASSF1A; PC3 cells, 1, 2 and 3 μg/ml, 3 days, dose-dependent",20-80 folds
same,nuclear localization of cyclin D1,cyclin D1,reduced and/or prevented the nuclear localization
same,cyclin D1 protein levels decreased to,"cyclin D1 protein; PC3 cells, 1 μg/ml, p<0.01",about 40%
same,cyclin D1 protein (Western blot),"cyclin D1 protein; PC3 cells, 1, 2 and 3 μg/ml",dose-dependent decrease
